*1 amine or outer side, *2 acyl side, *3 side chain or, on linkers, in order; H or OH if unused. Where a SMILES comes first, the peptide text is derived from it. Side-chain parts run from the residue outwards. The star is where a group is joined. C18 diacid = O=C(O)CCCCCCCCCCCCCCCCC(=O)*; γGlu = O=C(O)[C@H](CCC(=O)[*:2])N[*:1]; Isovaleryl = CC(C)CC(=O)*; AEEA = NCCOCCOCC(=O)O
Biological target: T1, Human Neuropeptide Y2 Receptor (Homo sapiens, UniProt P49146)
T1 construct: purchased CHEMICON HTS066M
T1 sequence (P49146 1-381): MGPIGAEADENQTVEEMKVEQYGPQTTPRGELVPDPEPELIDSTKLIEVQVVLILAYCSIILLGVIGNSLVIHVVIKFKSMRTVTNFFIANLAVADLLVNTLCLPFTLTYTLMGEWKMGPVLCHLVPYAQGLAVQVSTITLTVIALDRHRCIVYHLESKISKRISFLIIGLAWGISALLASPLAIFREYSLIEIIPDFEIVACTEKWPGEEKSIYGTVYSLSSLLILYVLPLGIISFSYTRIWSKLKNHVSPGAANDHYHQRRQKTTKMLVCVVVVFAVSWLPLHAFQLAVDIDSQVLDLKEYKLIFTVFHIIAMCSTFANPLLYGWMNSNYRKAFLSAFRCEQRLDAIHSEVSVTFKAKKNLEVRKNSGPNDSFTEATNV
Assay: Radioligand binding competition assay (RLB)
Details: Table 3; human 125I-PYY (1-36) 0.02 nM, Y2 receptor membranes; read-out: Ki
In short: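 Filtration format; Y2R membrane prep 0.5 μg/well; buffer 50 mM HEPES/5 mM MgCl2/1 mM CaCl2/0.2% ovalbumin pH 7.4; 2 h RT, shaking. Harvest on PEI-soaked GF/C, ice-cold HEPES/500 mM NaCl washes, scintillation count. IC50 by nonlinear fit.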

Ki [nM]	SMILES
5.92	CC(C)CC(=O)N[C@@H](C)C(=O)N1CCC[C@H]1C(=O)N[C@@H](CCC(=O)O)C(=O)N[C@@H](CCCCNC(=O)COCCOCCNC(=O)COCCOCCNC(=O)CC[C@H](NC(=O)CCCCCCCCCCCCCCCCC(=O)O)C(=O)O)C(=O)N1CCC[C@H]1C(=O)N[C@@H](CCC(=O)O)C(=O)N[C@@H](CCC(=O)O)C(=O)N[C@@H](C)C(=O)N[C@@H](C)C(=O)N[C@@H](CO)C(=O)N1CCC[C@H]1C(=O)N[C@@H](CCC(=O)O)C(=O)N[C@@H](CCC(=O)O)C(=O)N[C@@H](CC(C)C)C(=O)N[C@@H](CCC(N)=O)C(=O)N[C@@H](CCCNC(=N)N)C(=O)N[C@@H](Cc1ccc(O)cc1)C(=O)N[C@@H](Cc1ccc(O)cc1)C(=O)N[C@H](C(=O)N[C@@H](CO)C(=O)N[C@H](C(=O)N[C@@H](CCCNC(=N)N)C(=O)N[C@@H](Cc1c[nH]cn1)C(=O)N[C@@H](Cc1ccc(O)cc1)C(=O)N[C@@H](Cc1ccc(O)cc1)C(=O)N[C@@H](CC(N)=O)C(=O)N[C@@H](Cc1c[nH]c2ccccc12)C(=O)N[C@@H](CC(C)C)C(=O)N[C@H](C(=O)N[C@@H](CCCNC(=N)N)C(=O)N[C@@H](CCC(N)=O)C(=O)N[C@@H](CCCNC(=N)N)C(=O)N[C@@H](Cc1ccc(O)cc1)C(N)=O)[C@@H](C)O)[C@@H](C)O)C(C)C [Compound 42, N{alpha-4}-(3-methylbutanoyl)-N{epsilon-7}-[2-(2-{2-[2-(2-{2-[(4S)-4-carboxy-4-(17-carboxyheptadecanamido)butanamido]ethoxy}ethoxy)acetamido]ethoxy}ethoxy)acetamido]-[4A,7K,9E,11A,18Q,22V,24T,28Y,30W,31L]hPYY (4-36)] (Isovaleryl-APEK([AEEA-AEEA-γGlu-C18 diacid])PEEAASPEELQRYYVSTRHYYNWLTRQRY-NH2)
0.4	CC(C)CC(=O)N[C@@H](C)C(=O)N1CCC[C@H]1C(=O)N[C@@H](CCC(=O)O)C(=O)N[C@@H](CCCCNC(=O)COCCOCCNC(=O)COCCOCCNC(=O)CC[C@H](NC(=O)CCCCCCCCCCCCCCCCC(=O)O)C(=O)O)C(=O)N1CCC[C@H]1C(=O)N[C@@H](CCC(=O)O)C(=O)N[C@@H](C)C(=O)N1CCC[C@H]1C(=O)N[C@@H](C)C(=O)N[C@@H](CO)C(=O)N1CCC[C@H]1C(=O)N[C@@H](CCC(=O)O)C(=O)N[C@@H](CCC(=O)O)C(=O)N[C@@H](CC(C)C)C(=O)N[C@@H](CCC(N)=O)C(=O)N[C@@H](CCCNC(=N)N)C(=O)N[C@@H](Cc1ccc(O)cc1)C(=O)N[C@@H](Cc1ccc(O)cc1)C(=O)N[C@H](C(=O)N[C@@H](CO)C(=O)N[C@@H](CC(C)C)C(=O)N[C@@H](CCCNC(=N)N)C(=O)N[C@@H](Cc1c[nH]cn1)C(=O)N[C@@H](Cc1ccc(O)cc1)C(=O)N[C@@H](Cc1ccc(O)cc1)C(=O)N[C@@H](CC(N)=O)C(=O)N[C@@H](Cc1c[nH]c2ccccc12)C(=O)N[C@@H](CC(C)C)C(=O)N[C@H](C(=O)N[C@@H](CCCNC(=N)N)C(=O)N[C@@H](CCC(N)=O)C(=O)N[C@@H](CCCNC(=N)N)C(=O)N[C@@H](Cc1ccc(O)cc1)C(N)=O)[C@@H](C)O)C(C)C [Compound 43, N{alpha-4}-(3-methylbutanoyl)-N{epsilon-7}-[2-(2-{2-[2-(2-{2-[(4S)-4-carboxy-4-(17-carboxyheptadecanamido)butanamido]ethoxy}ethoxy)acetamido]ethoxy}ethoxy)acetamido]-[4A,7K,9E,10A,11P,18Q,22V,28Y,30W,31L]hPYY (4-36)] (Isovaleryl-APEK([AEEA-AEEA-γGlu-C18 diacid])PEAPASPEELQRYYVSLRHYYNWLTRQRY-NH2)

— patent US12559529B2, “NPY2 receptor agonists” (Boehringer Ingelheim International GmbH, priority 2019, dated 2026)
